Laboratory results taken from patent US8962523B2, “Herbicide/safener combination” (Bayer Cropscience AG, priority 2008, dated 2015).

Columns and labels:
Type in all cases: in vivo
[1] = system: Wheat (Triso); assay: Post-emergence herbicidal effect and safener effect, wheat; conditions: herbicide 50 g a.i./ha, no safener
Protocol: (§1) Seeds or rhizome pieces of mono- and dicotyledonous harmful plants and of crop plants are planted in peat pots in sandy loam, covered with earth and grown in a greenhouse under good growth conditions. Alternatively to this, harmful plants occurring in the paddy rice cultivation are cultivated in pots in which water comes to 2 cm above the soil surface. 10 to 20 days after sowing, the test plants are treated in the one to three-leaf stage. The herbicide/safener active ingredient combinations according to the invention, formulated as water-soluble powders or suspensions, and, in parallel experiments, the correspondingly formulated individual active ingredients are sprayed onto the green plant parts in various dosages using an application rate of 300 l of water/ha (converted) and, after the test plants have remained in the greenhouse under optimum growth conditions for 2-3 weeks, the effect of the preparations is scored visually in comparison with untreated controls. In the case of rice or in the case of harmful plants which occur in the rice cultivation, the active ingredients are also placed directly into the irrigation water (application analogous to the so-called granules application) or sprayed onto plants and into the irrigation water.

[2] = system: Wheat (Triso); assay: Pre-emergence herbicidal effect and safener effect, wheat; conditions: herbicide 100 g a.i./ha, no safener, visual scoring vs untreated controls
Source text: (§2) Seeds or rhizome pieces of mono- and dicotyledonous weed plants and crop plants were planted in peat pots in sandy loam and covered with earth. The herbicide/safener active ingredient combinations according to the invention, formulated as water-soluble powders or suspensions, and, in parallel experiments, the correspondingly formulated individual active ingredients were then applied to the surface of the covering earth at an application rate of 600 to 800 l of water/ha (converted) in a variety of dosages.
(§3) After the treatment, the pots were placed in the greenhouse and kept under good growth conditions for the weeds and the crop plants. Visual scoring of the plant damage or emergence damage was carried out after the test plants had emerged after a test period of 2 to 4 weeks, in comparison with untreated controls.

[3] = system: Barley (Adonis); assay: Post-emergence herbicidal effect and safener effect, barley; conditions: no safener
Protocol: as §1

[4] = system: Corn (Aventura); assay: Post-emergence herbicidal effect and safener effect, corn; conditions: herbicide 100 g a.i./ha, no safener
Protocol: as §1

[5] = system: Corn (Aventura); assay: Pre-emergence herbicidal effect and safener effect, corn; conditions: no safener
Source text: as §2, §3

Compound: COC(=O)c1nc(-c2ccc(Cl)nc2)cc(N)c1Cl [I-128, Methyl 4-amino-3-chloro-6-(6-chloro-3-pyridinyl)pyridine-2-carboxylate]
- % Effect (without safener) [1]: 40%
- % Effect (without safener) [2]: 50%
- % Effect (without safener) ([3]; herbicide 25 g a.i./ha): 30%
- % Effect (without safener) ([3]; herbicide 50 g a.i./ha): 20%
- % Effect (without safener) [4]: 40%
- % Effect (without safener) ([5]; herbicide 25 g a.i./ha): 50%
- % Effect (without safener) ([5]; herbicide 50 g a.i./ha): 65%
